Key:
Experiment in all cases: relative viability (nuclei count vs DMSO), 5 days (fraction); higher = more cells survive
[1] = system: NCI-H647
How it was run: (§1)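 Lung cancer cell lines in 1536-well plates got either a single drug or a fixed anchor-drug dose together with five library-drug doses (not always all listed) in √10 steps, by pin tool, on the day after seeding. Nuclei were counted after 5 days, and relative viability is the treated-to-vehicle ratio of nuclei counts. Values are medians of duplicate plates.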

[2] = system: NCI-H522
How it was run: as §1

[3] = system: SK-MES-1
How it was run: as §1

[4] = system: HARA
How it was run: as §1

[5] = system: HCC-827
How it was run: as §1

[6] = system: HCC-366
How it was run: as §1

[7] = system: SK-LU-1
How it was run: as §1

[8] = system: EKVX
How it was run: as §1

[9] = system: NCI-H1734
How it was run: as §1

[10] = system: NCI-H1792
How it was run: as §1

[11] = system: NCI-H2009
How it was run: as §1

[12] = system: NCI-H1993
How it was run: as §1

[13] = system: BEN
How it was run: as §1

[14] = system: NCI-H2087
How it was run: as §1

[15] = system: NCI-H1355
How it was run: as §1

[16] = system: LOU-NH91
How it was run: as §1

[17] = system: NCI-H1437
How it was run: as §1

[18] = system: NCI-H2342
How it was run: as §1

[19] = system: NCI-H661
How it was run: as §1

[20] = system: NCI-H2170
How it was run: as §1

[21] = system: NCI-H1395
How it was run: as §1

[22] = system: NCI-H2405
How it was run: as §1

Structure (SMILES): Nc1ccn([C@@H]2O[C@H](CO)[C@@H](O)[C@@H]2O)c(=O)n1 [Cytarabine] + O=C(c1cc(Cc2n[nH]c(=O)c3ccccc23)ccc1F)N1CCN(C(=O)C2CC2)CC1 [Olaparib] (partner 8 µM)
- relative viability ([1]; first compound 0.005 µM): 0.285
- relative viability ([1]; first compound 0.01581 µM): 0.22
- relative viability ([1]; first compound 0.05 µM): 0.174
- relative viability ([1]; first compound 0.1581 µM): 0.0623
- relative viability ([1]; first compound 0.5 µM): 0.0624
- relative viability ([2]; first compound 0.005 µM): 0.654
- relative viability ([2]; first compound 0.01581 µM): 0.602
- relative viability ([2]; first compound 0.05 µM): 0.813
- relative viability ([2]; first compound 0.1581 µM): 0.545
- relative viability ([2]; first compound 0.5 µM): 0.426
- relative viability ([3]; first compound 0.005 µM): 0.619
- relative viability ([3]; first compound 0.01581 µM): 0.527
- relative viability ([3]; first compound 0.05 µM): 0.313
- relative viability ([3]; first compound 0.1581 µM): 0.173
- relative viability ([3]; first compound 0.5 µM): 0.183
- relative viability ([4]; first compound 0.005 µM): 0.928
- relative viability ([4]; first compound 0.01581 µM): 0.413
- relative viability ([4]; first compound 0.05 µM): 0.487
- relative viability ([4]; first compound 0.1581 µM): 0.179
- relative viability ([4]; first compound 0.5 µM): 0.162
- relative viability ([5]; first compound 0.005 µM): 0.459
- relative viability ([5]; first compound 0.01581 µM): 0.367
- relative viability ([5]; first compound 0.05 µM): 0.0662
- relative viability ([5]; first compound 0.1581 µM): 0.159
- relative viability ([5]; first compound 0.5 µM): 0.189
- relative viability ([6]; first compound 0.005 µM): 0.316
- relative viability ([6]; first compound 0.01581 µM): 0.362
- relative viability ([6]; first compound 0.05 µM): 0.32
- relative viability ([6]; first compound 0.1581 µM): 0.136
- relative viability ([6]; first compound 0.5 µM): 0.0939
- relative viability ([7]; first compound 0.005 µM): 0.472
- relative viability ([7]; first compound 0.01581 µM): 0.392
- relative viability ([7]; first compound 0.05 µM): 0.32
- relative viability ([7]; first compound 0.1581 µM): 0.284
- relative viability ([7]; first compound 0.5 µM): 0.235
- relative viability ([8]; first compound 0.005 µM): 0.819
- relative viability ([8]; first compound 0.01581 µM): 0.665
- relative viability ([8]; first compound 0.05 µM): 0.695
- relative viability ([8]; first compound 0.5 µM): 0.234
- relative viability ([9]; first compound 0.005 µM): 0.4
- relative viability ([9]; first compound 0.01581 µM): 0.243
- relative viability ([9]; first compound 0.05 µM): 0.183
- relative viability ([9]; first compound 0.1581 µM): 0.108
- relative viability ([9]; first compound 0.5 µM): 0.122
- relative viability ([10]; first compound 0.01581 µM): 0.399
- relative viability ([10]; first compound 0.05 µM): 0.248
- relative viability ([10]; first compound 0.1581 µM): 0.167
- relative viability ([10]; first compound 0.5 µM): 0.0776
- relative viability ([11]; first compound 0.005 µM): 0.744
- relative viability ([11]; first compound 0.01581 µM): 0.752
- relative viability ([11]; first compound 0.05 µM): 0.724
- relative viability ([11]; first compound 0.1581 µM): 0.644
- relative viability ([11]; first compound 0.5 µM): 0.202
- relative viability ([12]; first compound 0.005 µM): 1.05
- relative viability ([12]; first compound 0.01581 µM): 0.933
- relative viability ([12]; first compound 0.05 µM): 0.998
- relative viability ([12]; first compound 0.1581 µM): 0.727
- relative viability ([12]; first compound 0.5 µM): 0.459
- relative viability ([13]; first compound 0.005 µM): 0.822
- relative viability ([13]; first compound 0.01581 µM): 0.703
- relative viability ([13]; first compound 0.05 µM): 0.637
- relative viability ([13]; first compound 0.1581 µM): 0.447
- relative viability ([13]; first compound 0.5 µM): 0.384
- relative viability ([14]; first compound 0.005 µM): 0.413
- relative viability ([14]; first compound 0.01581 µM): 0.618
- relative viability ([14]; first compound 0.05 µM): 0.578
- relative viability ([14]; first compound 0.1581 µM): 0.348
- relative viability ([14]; first compound 0.5 µM): 0.19
- relative viability ([15]; first compound 0.005 µM): 0.731
- relative viability ([15]; first compound 0.01581 µM): 0.673
- relative viability ([15]; first compound 0.05 µM): 0.57
- relative viability ([15]; first compound 0.1581 µM): 0.396
- relative viability ([15]; first compound 0.5 µM): 0.344
- relative viability ([16]; first compound 0.005 µM): 0.89
- relative viability ([16]; first compound 0.01581 µM): 0.905
- relative viability ([16]; first compound 0.05 µM): 0.833
- relative viability ([16]; first compound 0.1581 µM): 0.676
- relative viability ([16]; first compound 0.5 µM): 0.625
- relative viability ([17]; first compound 0.005 µM): 0.529
- relative viability ([17]; first compound 0.01581 µM): 0.51
- relative viability ([17]; first compound 0.05 µM): 0.469
- relative viability ([17]; first compound 0.1581 µM): 0.283
- relative viability ([17]; first compound 0.5 µM): 0.234
- relative viability ([18]; first compound 0.005 µM): 0.477
- relative viability ([18]; first compound 0.01581 µM): 0.477
- relative viability ([18]; first compound 0.05 µM): 0.468
- relative viability ([18]; first compound 0.1581 µM): 0.389
- relative viability ([18]; first compound 0.5 µM): 0.31
- relative viability ([19]; first compound 0.005 µM): 0.677
- relative viability ([19]; first compound 0.01581 µM): 0.773
- relative viability ([19]; first compound 0.05 µM): 0.646
- relative viability ([19]; first compound 0.1581 µM): 0.518
- relative viability ([19]; first compound 0.5 µM): 0.398
- relative viability ([20]; first compound 0.005 µM): 0.544
- relative viability ([20]; first compound 0.01581 µM): 0.47
- relative viability ([20]; first compound 0.05 µM): 0.408
- relative viability ([20]; first compound 0.1581 µM): 0.265
- relative viability ([20]; first compound 0.5 µM): 0.23
- relative viability ([21]; first compound 0.005 µM): 0.463
- relative viability ([21]; first compound 0.01581 µM): 0.432
- relative viability ([21]; first compound 0.05 µM): 0.396
- relative viability ([21]; first compound 0.1581 µM): 0.41
- relative viability ([21]; first compound 0.5 µM): 0.335
- relative viability ([22]; first compound 0.005 µM): 0.737
- relative viability ([22]; first compound 0.01581 µM): 0.605
- relative viability ([22]; first compound 0.05 µM): 0.509
- relative viability ([22]; first compound 0.1581 µM): 0.396
- relative viability ([22]; first compound 0.5 µM): 0.336

— the supplement of paper PMC10307832
